Molecular target: T1, ΔF508-CFTR (Homo sapiens, UniProt P13569, DEL508-508)
T1 construct: Primary lung epithelial cells homozygous for the Cystic Fibrosis-causing ΔF508 mutation were differentiated; endogenous in cells; host or cells: primary human bronchial epithelial cells (hBE), ΔF508/ΔF508
Test: hBE equivalent current (Ieq) assay, CFTR activity
Assay type: cell-based
Details: relative to a CFTR amplifier at 3 μM, ΔF508 homozygous hBE, 24 h treatment; for Activity 3 μM: compound at 3 μM; for Activity 10 μM: compound at 10 μM
Method: Primary lung epithelial cells homozygous for the Cystic Fibrosis-causing ΔF508 mutation were differentiated for a minimum of 4 weeks in an air-liquid interface on Costar 24 well HTS filter plates prior to the equivalent current (Ieq) measurements. Cells were apically mucus-washed for 30 minutes 24 h prior to treatment with compounds. The basolateral media was removed and replaced with media containing the compound of interest diluted to its final concentration from DMSO stocks. Treated cells were incubated at 37° C. and 5% CO2 for 24 hours. At the end of the treatment period, the media was changed to the Ieq experimental solution for 2 hours before the experiment and plates are maintained in a CO2-free incubator during this period. The plates containing the cells were then placed in pre-warmed heating blocks at 36° C.±0.5 for 15 minutes before measurements are taken. The transepithelial voltage (VT) and conductance (GT) were measured using a custom 24 channel current clamp (TECC-24) with 24 well electrode manifold. The Ieq assay measurements were made following additions with standardized time periods:
1. The baseline VT and GT values were measured for approximately 20 minutes.
2. Benzamil was added to block ENaC for 15 minutes.
3. Forskolin plus VX-770 were added to maximally activate ΔF508-CFTR for 27 minutes.
4. Bumetanide was added to inhibit the NaK2Cl cotransporter and shut-off secretion of chloride.
The activity data captured was the area under the curve (AUC) for the traces of the equivalent chloride current. The AUC was collected from the time of the forskolin/VX-770 addition until the inhibition by bumetanide addition. Correction in response to compound treatment was scored as the increase in the AUC for compound-treated samples over that of vehicle-treated samples.
The results are shown below in Table 1. + indicates activity <150% of a CFTR amplifier with compound at concentration shown and amplifier at 3 μM; ++ indicates activity >150% of a CFTR amplifier with compound at concentration shown and amplifier at 3 μM.

T1 sequence (P13569 with tags, fused parts or gaps DEL508-508): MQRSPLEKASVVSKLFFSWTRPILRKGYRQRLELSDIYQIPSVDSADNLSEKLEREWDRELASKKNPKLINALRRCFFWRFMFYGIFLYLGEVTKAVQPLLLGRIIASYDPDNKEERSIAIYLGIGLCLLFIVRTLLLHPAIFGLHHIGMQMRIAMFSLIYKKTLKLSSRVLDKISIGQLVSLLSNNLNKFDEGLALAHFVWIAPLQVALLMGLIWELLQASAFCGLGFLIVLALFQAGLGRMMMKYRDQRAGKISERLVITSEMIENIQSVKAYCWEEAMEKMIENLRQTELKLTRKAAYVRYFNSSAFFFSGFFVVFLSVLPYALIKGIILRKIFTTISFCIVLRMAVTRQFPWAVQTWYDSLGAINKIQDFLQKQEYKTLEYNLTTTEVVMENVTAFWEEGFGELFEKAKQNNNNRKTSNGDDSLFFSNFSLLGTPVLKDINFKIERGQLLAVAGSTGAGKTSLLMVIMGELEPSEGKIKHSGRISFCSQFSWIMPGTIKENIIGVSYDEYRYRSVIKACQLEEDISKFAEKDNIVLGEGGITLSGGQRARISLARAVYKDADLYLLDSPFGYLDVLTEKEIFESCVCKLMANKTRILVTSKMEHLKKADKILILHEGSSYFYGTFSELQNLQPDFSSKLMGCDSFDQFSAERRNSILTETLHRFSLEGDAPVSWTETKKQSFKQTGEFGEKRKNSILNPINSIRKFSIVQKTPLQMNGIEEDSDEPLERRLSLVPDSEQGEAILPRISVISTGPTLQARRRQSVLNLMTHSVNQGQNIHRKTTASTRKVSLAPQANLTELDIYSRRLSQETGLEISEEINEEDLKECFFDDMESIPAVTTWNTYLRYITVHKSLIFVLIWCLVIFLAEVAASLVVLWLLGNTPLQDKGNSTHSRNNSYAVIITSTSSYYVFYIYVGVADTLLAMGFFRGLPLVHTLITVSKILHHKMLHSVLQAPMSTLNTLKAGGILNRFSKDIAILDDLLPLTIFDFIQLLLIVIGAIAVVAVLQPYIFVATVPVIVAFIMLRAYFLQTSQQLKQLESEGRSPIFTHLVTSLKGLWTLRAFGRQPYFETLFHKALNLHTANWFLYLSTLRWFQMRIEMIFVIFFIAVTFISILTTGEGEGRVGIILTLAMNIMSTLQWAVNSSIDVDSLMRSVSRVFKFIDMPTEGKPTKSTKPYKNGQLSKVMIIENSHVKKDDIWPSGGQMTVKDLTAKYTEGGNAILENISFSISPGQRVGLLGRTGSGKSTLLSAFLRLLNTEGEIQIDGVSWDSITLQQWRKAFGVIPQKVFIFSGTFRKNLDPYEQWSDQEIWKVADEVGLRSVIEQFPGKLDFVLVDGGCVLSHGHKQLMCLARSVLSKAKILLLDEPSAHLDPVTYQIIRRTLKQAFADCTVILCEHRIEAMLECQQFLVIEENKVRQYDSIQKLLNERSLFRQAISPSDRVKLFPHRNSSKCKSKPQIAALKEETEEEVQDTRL

SMILES	Activity 3 μM	Activity 10 μM
CC(C(=O)Nc1ccc(C(F)(F)F)cc1)n1nc(-c2ccccc2Cl)ccc1=O (stereo not shown) [Compound 29, 2-[3-(2-Chlorophenyl)-6-oxo-1,6-dihydropyridazin-1-yl]-N-[4-(trifluoromethyl)phenyl]propanamide]	+ (activity <150% of a CFTR amplifier with compound at concentration shown and amplifier at 3 μM)	+ (activity <150% of a CFTR amplifier with compound at concentration shown and amplifier at 3 μM)
CC(C(=O)Nc1ccc(C(F)(F)F)cc1)n1nc(-c2cccc(Cl)c2)ccc1=O (stereo not shown) [Compound 30, 2-[3-(3-Chlorophenyl)-6-oxo-1,6-dihydropyridazin-1-yl]-N-[4-(trifluoromethyl)phenyl]propanamide]	++ (activity >150% of a CFTR amplifier with compound at concentration shown and amplifier at 3 μM)	++ (activity >150% of a CFTR amplifier with compound at concentration shown and amplifier at 3 μM)
CC(C(=O)Nc1ccc(C(F)(F)F)cc1)n1nc(-c2ccc(Cl)cc2)ccc1=O (stereo not shown) [Compound 31, 2-[3-(4-Chlorophenyl)-6-oxo-1,6-dihydropyridazin-1-yl]-N-[4-(trifluoromethyl)phenyl]propanamide]	+ (activity <150% of a CFTR amplifier with compound at concentration shown and amplifier at 3 μM)	+ (activity <150% of a CFTR amplifier with compound at concentration shown and amplifier at 3 μM)
CC(C(=O)Nc1ccc(C(F)(F)F)cc1)n1nc(-c2ccccc2C(F)(F)F)ccc1=O (stereo not shown) [Compound 32, 2-[6-Oxo-3-[2-(trifluoromethyl)phenyl]-1,6-dihydropyridazin-1-yl]-N-[4-(trifluoromethyl)phenyl]propanamide]	+ (activity <150% of a CFTR amplifier with compound at concentration shown and amplifier at 3 μM)	+ (activity <150% of a CFTR amplifier with compound at concentration shown and amplifier at 3 μM)
CC(C(=O)Nc1ccc(C(F)(F)F)cc1)n1nc(-c2cccc(C(F)(F)F)c2)ccc1=O (stereo not shown) [Compound 33, 2-[6-Oxo-3-[3-(trifluoromethyl)phenyl]-1,6-dihydropyridazin-1-yl]-N-[4-(trifluoromethyl)phenyl]propanamide]	++ (activity >150% of a CFTR amplifier with compound at concentration shown and amplifier at 3 μM)	++ (activity >150% of a CFTR amplifier with compound at concentration shown and amplifier at 3 μM)
CC(C(=O)Nc1ccc(C(F)(F)F)cc1)n1nc(-c2ccc(C(F)(F)F)cc2)ccc1=O (stereo not shown) [Compound 34, 2-[6-Oxo-3-[4-(trifluoromethyl)phenyl]-1,6-dihydropyridazin-1-yl]-N-[4-(trifluoromethyl)phenyl]propanamide]	+ (activity <150% of a CFTR amplifier with compound at concentration shown and amplifier at 3 μM)	+ (activity <150% of a CFTR amplifier with compound at concentration shown and amplifier at 3 μM)
CC(C(=O)Nc1ccc(C(F)(F)F)cc1)n1nc(-c2ccccc2C#N)ccc1=O (stereo not shown) [Compound 35, 2-[3-(2-Cyanophenyl)-6-oxo-1,6-dihydropyridazin-1-yl]-N-[4-(trifluoromethyl)phenyl]propanamide]	+ (activity <150% of a CFTR amplifier with compound at concentration shown and amplifier at 3 μM)	+ (activity <150% of a CFTR amplifier with compound at concentration shown and amplifier at 3 μM)
CC(C(=O)Nc1ccc(C(F)(F)F)cc1)n1nc(-c2cccc(C#N)c2)ccc1=O (stereo not shown) [Compound 36, 2-[3-(3-Cyanophenyl)-6-oxo-1,6-dihydropyridazin-1-yl]-N-[4-(trifluoromethyl)phenyl]propanamide]	++ (activity >150% of a CFTR amplifier with compound at concentration shown and amplifier at 3 μM)	++ (activity >150% of a CFTR amplifier with compound at concentration shown and amplifier at 3 μM)
CC(C(=O)Nc1ccc(C(F)(F)F)cc1)n1nc(-c2ccc(C#N)cc2)ccc1=O (stereo not shown) [Compound 37, 2-[3-(4-Cyanophenyl)-6-oxo-1,6-dihydropyridazin-1-yl]-N-[4-(trifluoromethyl)phenyl]propanamide]	+ (activity <150% of a CFTR amplifier with compound at concentration shown and amplifier at 3 μM)	+ (activity <150% of a CFTR amplifier with compound at concentration shown and amplifier at 3 μM)
CCC(C(=O)Nc1ccc(C(F)(F)F)cc1)n1nc(-c2cccc(OC)c2)ccc1=O (stereo not shown) [Compound 38, 2-[3-(3-Methoxyphenyl)-6-oxo-1,6-dihydropyridazin-1-yl]-N-[4-(trifluoromethyl)phenyl]butanamide]	++ (activity >150% of a CFTR amplifier with compound at concentration shown and amplifier at 3 μM)	++ (activity >150% of a CFTR amplifier with compound at concentration shown and amplifier at 3 μM)
COc1cccc(-c2ccc(=O)n(C(C(=O)Nc3ccc(C(F)(F)F)cc3)C3CC3)n2)c1 (stereo not shown) [Compound 39, 2-Cyclopropyl-2-(3-(3-methoxyphenyl)-6-oxopyridazin-1(6H)-yl)-N-(4-(trifluoromethyl)phenyl)acetamide]	++ (activity >150% of a CFTR amplifier with compound at concentration shown and amplifier at 3 μM)	++ (activity >150% of a CFTR amplifier with compound at concentration shown and amplifier at 3 μM)
COc1cccc(-c2ccc(=O)n(C(C(=O)Nc3ccc(C(F)(F)F)cc3)c3ccccc3)n2)c1 (stereo not shown) [Compound 40, 2-(3-(3-Methoxyphenyl)-6-oxopyridazin-1(6H)-yl)-2-phenyl-N-(4-(trifluoromethyl)phenyl)acetamide]	++ (activity >150% of a CFTR amplifier with compound at concentration shown and amplifier at 3 μM)	+ (activity <150% of a CFTR amplifier with compound at concentration shown and amplifier at 3 μM)
COc1cccc(-c2ccc(=O)n(C(C)C(=O)Nc3cc(C(F)(F)F)cc(C(F)(F)F)c3)n2)c1 (stereo not shown) [Compound 41, N-(3,5-Bis(trifluoromethyl)phenyl)-2-(3-(3-methoxyphenyl)-6-oxopyridazin-1(6H)-yl)propanamide]	++ (activity >150% of a CFTR amplifier with compound at concentration shown and amplifier at 3 μM)	++ (activity >150% of a CFTR amplifier with compound at concentration shown and amplifier at 3 μM)
COc1cccc(-c2ccc(=O)n(C(C)C(=O)Nc3ccc(C(F)(F)F)cc3F)n2)c1 (stereo not shown) [Compound 42, N-(2-Fluoro-4-(trifluoromethyl)phenyl)-2-(3-(3-methoxyphenyl)-6-oxopyridazin-1(6H)-yl)propanamide]	++ (activity >150% of a CFTR amplifier with compound at concentration shown and amplifier at 3 μM)	++ (activity >150% of a CFTR amplifier with compound at concentration shown and amplifier at 3 μM)
COc1cccc(-c2ccc(=O)n(C(C)C(=O)Nc3ccc(C(F)(F)F)c(F)c3)n2)c1 (stereo not shown) [Compound 43, N-[3-Fluoro-4-(trifluoromethyl)phenyl]-2-[3-(3-methoxyphenyl)-6-oxo-1,6-dihydropyridazin-1-yl]propanamide]	++ (activity >150% of a CFTR amplifier with compound at concentration shown and amplifier at 3 μM)	++ (activity >150% of a CFTR amplifier with compound at concentration shown and amplifier at 3 μM)
COc1cccc(-c2ccc(=O)n(C(C)C(=O)Nc3ccc(C#N)cc3)n2)c1 (stereo not shown) [Compound 44, N-(4-Cyanophenyl)-2-(3-(3-methoxyphenyl)-6-oxopyridazin-1(6H)-yl)propanamide]	+ (activity <150% of a CFTR amplifier with compound at concentration shown and amplifier at 3 μM)	+ (activity <150% of a CFTR amplifier with compound at concentration shown and amplifier at 3 μM)
COc1cccc(-c2ccc(=O)n(C(C)C(=O)Nc3cccc(C#N)c3)n2)c1 (stereo not shown) [Compound 45, N-(3-Cyanophenyl)-2-(3-(3-methoxyphenyl)-6-oxopyridazin-1(6H)-yl)propanamide]	+ (activity <150% of a CFTR amplifier with compound at concentration shown and amplifier at 3 μM)	+ (activity <150% of a CFTR amplifier with compound at concentration shown and amplifier at 3 μM)
